Measured values from patent publication US6825233B2, “Compounds having retinoid-like activity” (Bristol-Myers Squibb Company, priority 2001, dated 2004).
Read-outs that look alike come from different tables or passages of the source.

Key:
RARα = target: T1, RARα (Homo sapiens, UniProt P10276); experiment: Competition binding assay using Yttrium SPA beads, RARα
T1 construct: made in house; host or cells: E. coli BL21 (DE3)
T1 sequence (P10276 183-417 limits assumed): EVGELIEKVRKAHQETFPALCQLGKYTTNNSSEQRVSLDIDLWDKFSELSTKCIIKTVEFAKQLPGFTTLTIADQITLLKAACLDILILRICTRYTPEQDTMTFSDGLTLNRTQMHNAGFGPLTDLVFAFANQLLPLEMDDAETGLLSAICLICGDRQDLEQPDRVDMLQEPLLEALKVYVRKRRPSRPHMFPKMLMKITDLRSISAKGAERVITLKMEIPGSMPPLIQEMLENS

RARβ = target: T2, RARβ (Homo sapiens, UniProt P10826); experiment: Competition binding assay using Yttrium SPA beads, RARβ
T2 construct: made in house; host or cells: E. coli BL21 (DE3)
T2 sequence (P10826 183-417 limits assumed): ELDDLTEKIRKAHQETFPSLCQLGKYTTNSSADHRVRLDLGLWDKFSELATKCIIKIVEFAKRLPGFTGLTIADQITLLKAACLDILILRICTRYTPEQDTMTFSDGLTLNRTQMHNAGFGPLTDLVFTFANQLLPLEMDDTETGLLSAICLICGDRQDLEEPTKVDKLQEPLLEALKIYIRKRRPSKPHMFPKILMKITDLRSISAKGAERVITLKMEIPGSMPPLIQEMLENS

RARγ = target: T3, RARγ (Homo sapiens, UniProt P13631); experiment: Competition binding assay using Yttrium SPA beads, RARγ
T3 construct: made in house; host or cells: E. coli BL21 (DE3)
T3 sequence (P13631 185-419 limits assumed): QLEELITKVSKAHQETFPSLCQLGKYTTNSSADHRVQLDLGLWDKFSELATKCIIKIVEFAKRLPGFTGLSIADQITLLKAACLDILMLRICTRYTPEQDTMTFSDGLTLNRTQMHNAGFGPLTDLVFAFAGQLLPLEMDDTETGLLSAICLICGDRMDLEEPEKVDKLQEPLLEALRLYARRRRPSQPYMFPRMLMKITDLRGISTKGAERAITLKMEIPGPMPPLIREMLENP

GAL-RARα = target: T4, GAL-RARα (Homo sapiens, UniProt P10276); experiment: Transactivation assay, HeLa cells with GAL-RARα and (17 mer)x5-Glob-Luc reporter; type: cell-based; conditions: stable HeLa cell line, luciferase reporter, 24 hours
T4 construct: expressed in transfected cells
T4 sequence (P10276 183-417 limits assumed): T1 sequence (P10276 183-417 limits assumed)

GAL-RARβ = target: T5, GAL-RARβ (Homo sapiens, UniProt P10826); experiment: Transactivation assay, HeLa cells with GAL-RARβ and (17 mer)x5-Glob-Luc reporter; type: cell-based; conditions: stable HeLa cell line, luciferase reporter, 24 hours
T5 construct: expressed in transfected cells
T5 sequence (P10826 183-417 limits assumed): T2 sequence (P10826 183-417 limits assumed)

GAL-RARγ = target: T6, GAL-RARγ (Homo sapiens, UniProt P13631); experiment: Transactivation assay, HeLa cells with GAL-RARγ and (17 mer)x5-Glob-Luc reporter; type: cell-based; conditions: stable HeLa cell line, luciferase reporter, 24 hours
T6 construct: expressed in transfected cells
T6 sequence (P13631 185-419 limits assumed): T3 sequence (P13631 185-419 limits assumed)

T47D = experiment: Growth assay, [3H]-thymidine incorporation, T47D; type: cell-based; conditions: Homo sapiens, T47D cells, 3 or 6 days incubation, read-out: Cell Growth Inhibition (IC50, nM) T47D
Experimental: (§1) Principle of the assay: The proliferation of the cells was measured by the incorporation of [^3H]-Thymidine in the DNA of dividing cells.
(§2) Protocol: The number of cells which was plated has been primarily defined to avoid the cells reaching confluence before the end of the experiment duration (T47D & HT3, 750 cells/well; H3396, 200 cells/well of 96 well plates). The first day, the cells were plated in 96 well plates and incubated overnight at 37° C. (in […]; CO2, 5%), allowing the cells adhering to the support. The next day, the compounds were added to the cells and incubated for 3 or 6 days (note: for the 6-day incubation, the medium was replaced at Day3). At the end of the treatment, 10 μl of [^3H]-thymidine (final concentration of 0.4 μCi/well) were added for 4 hours at 37° C., the medium was finally removed, the cells trypsinized and harvested under vacuum on GF/B glass fiber filters. After 3 washes with distilled water, the filter were dried and counted in a scintillation counter after adding 50 μl of Microscint (Packard) to each filter. The percentage of growth inhibition was calculated by using DMSO as reference, which is the vehicle of the compounds. Growth inhibition is reported as IC50's in nM

HT3 = experiment: Growth assay, [3H]-thymidine incorporation, HT3; type: cell-based; conditions: Homo sapiens
Experimental: as §1, §2

[1] = HT-3, HT3 cells, [3H]-thymidine incorporation, 3 or 6 days incubation, read-out: Cell Growth Inhibition (IC50, nM) HT3

Row | Structure (SMILES) | Kd (RARα) [nM] | Kd (RARβ) [nM] | Kd (RARγ) [nM] | EC50 (GAL-RARα) [nM] | EC50 (GAL-RARβ) [nM] | EC50 (GAL-RARγ) [nM] | IC50 (T47D) [nM] | IC50 (HT3; [1]) [nM] | IC50 (HT3; HT-3, read-out: Cell Growth Inhibition (IC50, nM) HT3) [nM]
1 | COc1ccc2c(c1)-c1cc(/C=C/c3ccc(C(=O)O)cc3)ccc1C(C)(C)C2 [Compound 10] | 1.1 | 1.6 | 10.6 | 0.02 | 0.005 | 1.9 | < 0.01 | < 0.01 | 
2 | CC1=C(/C=C/C(C)=C/C=C/C(C)=C/C(=O)O)C(C)(C)CCC1 [Retinoic acid, reference compound] |  |  |  |  |  |  | 6.5 |  | 1
3 | CC1(C)Cc2ccc(O)cc2-c2cc(/C=C/c3ccc(C(=O)O)cc3)ccc21 [Compound 8] | 8.3 | 18.6 | 52.8 | 13.5 | 1.76 | 47 | 4.8 | 1160 | 
